As usually defined, the Ki is a dissociation constant, usually derived from enzyme kinetics or from competition with a known ligand. Read a low Ki as tighter binding.

Where only a bound is given, the exact number is not on record here.

Some targets named below: Carbonic anhydrase 6 (Homo sapiens, UniProt P23280); Carbonic anhydrase 13 (Mus musculus, UniProt Q9D6N1); Carbonic anhydrase 9 (Homo sapiens, UniProt Q16790); Carbonic anhydrase 4 (Homo sapiens, UniProt P22748); Carbonic anhydrase 7 (Homo sapiens, UniProt P43166); Carbonic anhydrase 12 (Homo sapiens, UniProt O43570); Carbonic anhydrase 14 (Homo sapiens, UniProt Q9ULX7); Carbonic anhydrase 3 (Homo sapiens, UniProt P07451).

For test [1], the target named is Carbonic anhydrase 5A, mitochondrial (Homo sapiens, UniProt P35218).
For the next test, the target named is T1, Carbonic anhydrase 15 (Mus musculus, UniProt Q99N23).
T1 sequence (Q99N23 whole entry): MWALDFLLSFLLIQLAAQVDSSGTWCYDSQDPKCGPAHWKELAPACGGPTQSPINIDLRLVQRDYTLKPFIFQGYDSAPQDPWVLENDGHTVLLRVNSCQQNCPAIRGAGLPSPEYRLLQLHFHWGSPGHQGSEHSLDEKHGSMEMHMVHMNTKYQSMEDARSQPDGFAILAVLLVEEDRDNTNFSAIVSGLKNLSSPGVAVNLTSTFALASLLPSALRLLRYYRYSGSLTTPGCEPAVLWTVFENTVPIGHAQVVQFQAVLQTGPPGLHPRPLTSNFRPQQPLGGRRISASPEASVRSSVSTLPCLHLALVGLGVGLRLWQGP

Test [2] concerns the target Carbonic anhydrase 5B, mitochondrial (Homo sapiens, UniProt Q9Y2D0).
Test [3] concerns the target T2, Carbonic anhydrase 2 (Homo sapiens, UniProt P00918).
Test [4] concerns the target T2, Carbonic anhydrase 2. This is another data set of the same source.

Sequence of Carbonic anhydrase 4 (P22748 whole entry): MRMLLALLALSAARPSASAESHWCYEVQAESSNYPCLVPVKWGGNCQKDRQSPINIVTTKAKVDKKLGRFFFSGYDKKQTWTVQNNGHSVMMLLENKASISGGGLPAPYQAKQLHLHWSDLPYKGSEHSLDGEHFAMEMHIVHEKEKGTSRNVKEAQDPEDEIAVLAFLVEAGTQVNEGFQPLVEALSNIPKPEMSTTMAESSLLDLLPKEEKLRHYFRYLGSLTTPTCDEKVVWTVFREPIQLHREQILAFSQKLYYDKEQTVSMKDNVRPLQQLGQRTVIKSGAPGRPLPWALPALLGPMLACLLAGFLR
Sequence of Carbonic anhydrase 5B, mitochondrial (Q9Y2D0 whole entry): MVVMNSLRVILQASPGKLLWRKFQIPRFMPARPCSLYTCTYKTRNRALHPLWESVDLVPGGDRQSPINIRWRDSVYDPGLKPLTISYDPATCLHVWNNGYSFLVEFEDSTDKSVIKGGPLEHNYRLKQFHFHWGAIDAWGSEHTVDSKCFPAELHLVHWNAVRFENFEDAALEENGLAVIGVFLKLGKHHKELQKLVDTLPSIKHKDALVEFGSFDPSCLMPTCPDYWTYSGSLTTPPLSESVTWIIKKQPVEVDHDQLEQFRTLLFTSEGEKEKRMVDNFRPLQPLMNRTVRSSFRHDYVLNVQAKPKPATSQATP
Sequence of Carbonic anhydrase 5A, mitochondrial (P35218 whole entry): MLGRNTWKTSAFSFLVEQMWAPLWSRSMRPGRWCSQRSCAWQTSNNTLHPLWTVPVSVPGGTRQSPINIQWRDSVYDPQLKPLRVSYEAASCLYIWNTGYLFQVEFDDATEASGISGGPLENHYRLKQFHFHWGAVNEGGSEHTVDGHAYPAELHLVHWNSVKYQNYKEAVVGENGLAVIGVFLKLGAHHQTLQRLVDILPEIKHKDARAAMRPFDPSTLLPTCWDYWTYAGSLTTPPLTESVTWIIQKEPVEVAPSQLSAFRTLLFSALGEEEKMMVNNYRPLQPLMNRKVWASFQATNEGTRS
Sequence of Carbonic anhydrase 13 (Q9D6N1 whole entry): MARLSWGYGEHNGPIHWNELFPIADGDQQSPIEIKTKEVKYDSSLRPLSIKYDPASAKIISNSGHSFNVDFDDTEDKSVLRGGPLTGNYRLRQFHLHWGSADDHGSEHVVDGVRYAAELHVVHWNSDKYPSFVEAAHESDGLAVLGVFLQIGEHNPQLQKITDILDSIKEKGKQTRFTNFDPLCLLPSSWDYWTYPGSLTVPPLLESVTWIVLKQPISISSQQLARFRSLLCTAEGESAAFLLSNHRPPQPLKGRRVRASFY
Sequence of Carbonic anhydrase 7 (P43166 whole entry): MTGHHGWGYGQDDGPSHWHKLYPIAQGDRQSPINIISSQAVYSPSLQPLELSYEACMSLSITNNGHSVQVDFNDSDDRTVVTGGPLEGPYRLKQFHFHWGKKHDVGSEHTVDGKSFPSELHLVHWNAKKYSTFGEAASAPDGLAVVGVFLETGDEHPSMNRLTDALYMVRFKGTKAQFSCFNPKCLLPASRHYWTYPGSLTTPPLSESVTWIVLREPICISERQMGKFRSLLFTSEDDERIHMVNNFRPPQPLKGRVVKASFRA
Sequence of Carbonic anhydrase 3 (P07451 whole entry): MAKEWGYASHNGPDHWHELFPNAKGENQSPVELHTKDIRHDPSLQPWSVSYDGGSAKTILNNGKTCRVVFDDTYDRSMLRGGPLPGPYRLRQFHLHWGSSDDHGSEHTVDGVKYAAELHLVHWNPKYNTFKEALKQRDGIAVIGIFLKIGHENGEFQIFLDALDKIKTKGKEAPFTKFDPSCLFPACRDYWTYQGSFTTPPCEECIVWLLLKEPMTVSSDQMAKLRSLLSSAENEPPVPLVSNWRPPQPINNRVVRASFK
Sequence of Carbonic anhydrase 6 (P23280 whole entry): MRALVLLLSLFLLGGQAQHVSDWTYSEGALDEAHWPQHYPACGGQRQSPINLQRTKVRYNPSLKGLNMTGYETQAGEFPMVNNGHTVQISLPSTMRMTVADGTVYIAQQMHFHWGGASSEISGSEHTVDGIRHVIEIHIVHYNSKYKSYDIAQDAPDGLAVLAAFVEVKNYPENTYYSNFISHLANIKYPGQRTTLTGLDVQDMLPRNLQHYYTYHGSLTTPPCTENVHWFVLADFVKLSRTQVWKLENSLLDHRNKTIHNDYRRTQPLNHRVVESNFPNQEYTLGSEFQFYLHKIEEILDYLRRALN
Sequence of Carbonic anhydrase 14 (Q9ULX7 whole entry): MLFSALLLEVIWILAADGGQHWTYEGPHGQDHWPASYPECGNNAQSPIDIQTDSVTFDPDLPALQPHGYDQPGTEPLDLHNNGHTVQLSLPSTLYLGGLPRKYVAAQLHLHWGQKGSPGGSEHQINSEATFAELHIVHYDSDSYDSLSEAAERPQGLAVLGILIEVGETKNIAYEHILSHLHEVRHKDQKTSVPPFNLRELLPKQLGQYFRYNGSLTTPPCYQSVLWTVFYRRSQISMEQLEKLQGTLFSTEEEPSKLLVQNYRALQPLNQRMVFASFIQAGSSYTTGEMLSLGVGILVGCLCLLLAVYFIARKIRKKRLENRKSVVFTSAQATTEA
Sequence of Carbonic anhydrase 12 (O43570 whole entry): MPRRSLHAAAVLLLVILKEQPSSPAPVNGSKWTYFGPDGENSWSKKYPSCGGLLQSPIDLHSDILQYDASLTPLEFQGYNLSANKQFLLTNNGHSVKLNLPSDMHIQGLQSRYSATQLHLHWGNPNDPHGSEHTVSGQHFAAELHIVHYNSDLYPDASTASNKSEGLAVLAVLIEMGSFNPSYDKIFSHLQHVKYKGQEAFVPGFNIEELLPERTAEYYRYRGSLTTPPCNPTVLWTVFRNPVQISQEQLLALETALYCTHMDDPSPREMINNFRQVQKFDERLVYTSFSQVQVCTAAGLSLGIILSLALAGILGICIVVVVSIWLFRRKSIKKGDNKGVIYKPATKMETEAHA

For `CCOc1ccc2ccc(=O)oc2c1`, the inhibition constant (Ki) on Carbonic anhydrase 6 is 5.8 µM; at Carbonic anhydrase 13, 27.4 µM; on Carbonic anhydrase 9, 1.6 µM; at Carbonic anhydrase 4, 22.7 µM; in test [1] it was 7.3 µM; on Carbonic anhydrase 7, 7.2 µM. Moreover, the Ki at Carbonic anhydrase 15 worked out at 76.3 µM; at Carbonic anhydrase 12 it was 4.7 µM; in test [2], 60.9 µM; on Carbonic anhydrase 14 it was 4.7 µM; on Carbonic anhydrase 3 it was 29 µM.
With `NCc1ccc2oc(=O)ccc2c1`, the inhibition constant (Ki) on Carbonic anhydrase 13 is 0.04 µM; at Carbonic anhydrase 9 it was 8.4 µM.
As to `O=C(O)c1cc2cc(CO)ccc2oc1=O`, the Ki came out at 3.1 µM at Carbonic anhydrase 13 and 8.6 µM at Carbonic anhydrase 15.
Consider `COc1ccc2oc(=O)c(C(=O)O)cc2c1`, for which the Ki at Carbonic anhydrase 6 was 10.5 µM; at Carbonic anhydrase 13 it was 8.1 µM; at Carbonic anhydrase 9, 5.7 µM; on Carbonic anhydrase 4, 4.9 µM; in test [1], 8.7 µM; at Carbonic anhydrase 2 [3] it was 13.4 µM. The Ki on Carbonic anhydrase 7 came to 4.9 µM; on Carbonic anhydrase 15, 7.2 µM; on Carbonic anhydrase 2 [4], 0.059 µM; at Carbonic anhydrase 12, 6.8 µM; in test [2] it was 7.6 µM; on Carbonic anhydrase 14, 39.6 µM. On Carbonic anhydrase 3, this molecule registered a Ki of 9 µM.
For `CCCCOc1ccc2ccc(=O)oc2c1` [7-BUTOXYCOUMARIN], the inhibitory constant (Ki) at Carbonic anhydrase 13 turned out to be 6.1 µM; on Carbonic anhydrase 9 it was 4.9 µM; in test [1] it was 9 µM; at Carbonic anhydrase 15, 65.2 µM.
Regarding `O=C(O)c1cc2ccccc2sc1=O`, the Ki on Carbonic anhydrase 6 was 8.8 µM; on Carbonic anhydrase 13, 5.6 µM; on Carbonic anhydrase 15 it was 4.8 µM; on Carbonic anhydrase 3 it was > 500 µM.
For the molecule `COc1cccc2cc(C(=O)O)c(=O)oc12`, at Carbonic anhydrase 9, affinity was put at a Ki of 5.4 µM.
With `COc1ccc2c(C(=O)O)cc(=O)oc2c1`, the Ki was determined as 0.045 µM at Carbonic anhydrase 13 and 4.1 µM on Carbonic anhydrase 9.
Turning to `CCOC(=O)c1cc2ccc(OC)cc2oc1=O`, the inhibitory constant (Ki) at Carbonic anhydrase 6 is 42 µM; at Carbonic anhydrase 13 it was 0.045 µM; at Carbonic anhydrase 4, 7.2 µM; at Carbonic anhydrase 15 it was 6.6 µM; in test [2], 8 µM; on Carbonic anhydrase 3, 71.7 µM.
As for `CCOC(=O)c1cc2cc(CO)ccc2oc1=O`, the Ki on Carbonic anhydrase 6 amounted to 1.5 µM; on Carbonic anhydrase 9, 6.2 µM; on Carbonic anhydrase 4, 0.048 µM; in [1] it was 3 µM; at Carbonic anhydrase 2 [3] it was 24.6 µM; on Carbonic anhydrase 7 it was 0.045 µM. Besides, the inhibition constant (Ki) on Carbonic anhydrase 2 [4] is 213 µM; at Carbonic anhydrase 12, 25.6 µM; in [2] it was 2.9 µM; on Carbonic anhydrase 14 it was 4.6 µM; at Carbonic anhydrase 3, 60.9 µM.
For `COc1cc2oc(=O)ccc2cc1[C@@H](O)CC(C)C`, the results for the inhibition constant (Ki) on Carbonic anhydrase 13 and at Carbonic anhydrase 15 were 9.9 µM and 93.1 µM, respectively.
For `O=c1ccc2cc(C[N+]34CN5CN(CN(C5)C3)C4)ccc2o1`, the Ki amounted to 3.8 µM at Carbonic anhydrase 13 and 3 µM at Carbonic anhydrase 9.
For `COC(=O)c1cc2cc(CO)ccc2oc1=O`, the Ki at Carbonic anhydrase 13 was determined as 7.4 µM; on Carbonic anhydrase 9 it was 8.7 µM; at Carbonic anhydrase 4, 6.5 µM; at Carbonic anhydrase 15, 7.4 µM.
Regarding `O=c1ccc2cc(CO)ccc2o1`, the inhibitory constant (Ki) at Carbonic anhydrase 13 was determined as 0.047 µM; at Carbonic anhydrase 9, 8.4 µM; at Carbonic anhydrase 15, 7.4 µM.
`O=c1ccc2ccc(CCc3ccccc3)cc2o1`: the Ki worked out at 8.5 µM on Carbonic anhydrase 6, 7.3 µM at Carbonic anhydrase 13, 5.8 µM on Carbonic anhydrase 9 and 44.5 µM at Carbonic anhydrase 15.
As for `Cc1ccc2oc(=O)c(C(=O)O)cc2c1`, the Ki at Carbonic anhydrase 6 was 31.7 µM; on Carbonic anhydrase 9, 0.048 µM; at Carbonic anhydrase 7, 29.6 µM; on Carbonic anhydrase 3, > 500 µM.
With `CCCOc1ccc2ccc(=O)oc2c1` [7-PROPOXYCOUMARIN], the Ki at Carbonic anhydrase 13 is 6.6 µM; on Carbonic anhydrase 4 it was 24.6 µM; at Carbonic anhydrase 3, > 500 µM.
As to `COc1ccc2ccc(=O)oc2c1` [HERNIARIN], the Ki on Carbonic anhydrase 6 was 61.2 µM; at Carbonic anhydrase 4, 7.8 µM; in [1] it was > 500 µM; at Carbonic anhydrase 7, 9.1 µM; on Carbonic anhydrase 15, > 500 µM; on Carbonic anhydrase 3 it was 161 µM.
`O=C(O)c1cc2ccccc2oc1=O` [COUMARIN-3-CARBOXYLIC ACID]: the inhibition constant Ki at Carbonic anhydrase 6 was 31.3 µM; on Carbonic anhydrase 13, 20.3 µM; on Carbonic anhydrase 9, 6.5 µM; on Carbonic anhydrase 4 it was 3.8 µM; in [1] it was 9 µM; on Carbonic anhydrase 2 [3], > 500 µM. In addition, the Ki on Carbonic anhydrase 7 came out at 5.1 µM; at Carbonic anhydrase 15, 5.6 µM; on Carbonic anhydrase 12, 2.9 µM; in [2] it was 6.8 µM; on Carbonic anhydrase 14, 7.4 µM; at Carbonic anhydrase 3, 6.6 µM.
For `O=c1ccc2ccccc2o1` [COUMARIN], the results for the Ki at Carbonic anhydrase 4, at Carbonic anhydrase 7 and at Carbonic anhydrase 3 were 62.2 µM, 3.3 µM and 5.6 µM, respectively.

(Values after ChEMBL document CHEMBL1156762, “Deciphering the mechanism of carbonic anhydrase inhibition with coumarins and thiocoumarins” (J Med Chem, 2010).)
